Marks after values point to notes of the source that are not given here. Blank lines part the entries; values can stand above or below the molecule they belong to.
Columns and labels:
[1] = test system: mouse liver; assay: Metabolism in mice, time course analysis using radiolabeled fatty acids; format: in vivo; details: 10 μCi intraperitoneal, at 24 hours
From the text: (§1) The metabolism of stearidonic acid to long chain n-3 polyunsaturated fatty acids (i.e., eicosapentaenoic acid (EPA), docosapentaenoic acid (DPA n-3), and docosahexaenoic acid (DHA)) in mouse liver is compared to that of α-linolenic acid, eicosapentaenoic acid and docosahexaenoic acid. The method used is a time course study using ^14C-labeled fatty acids.
Mice are fed the US 17 diet for a period of one month in order to achieve steady-state fatty acid metabolism. After achieving steady-state fatty acid metabolism, the mice are administered an intraperitoneal injection containing 10 μCi of ^14C-ALA, ^14C-SDA, ^14C-EPA or ^14C-DHA. Mice are sacrificed 3 hours, 8 hours or 24 hours post-injection, and the total amount of ^14C-EPA, ^14C-DPA n-3 and ^14C-DHA is measured by argentation thin layer chromatography followed by direct electronic autoradiography, as described in Example 3. The order of metabolism of the PUFAs is DHA=EPA>SDA>ALA at 24 hours. SDA is metabolized to long chain n-3 PUFAs more efficiently than ALA in vivo.

[2] = test system: Min/+ mouse model of intestinal cancer; assay: Min/+ mouse model of intestinal cancer, intestinal polyp formation; format: in vivo; details: for mice with large intestine tumors / mice in group (in parentheses): seven weeks on US17 diet with fatty acid ethyl ester 3% wt. or sulindac 320 ppm; for effect on polyp number: differences not significant relative to the US17 control
Protocol: The efficacy of select n-3 and n-6 polyunsaturated fatty acids is evaluated in the Min/+ mouse model of intestinal cancer. The following fatty acid ethyl esters are tested for their effect on intestinal polyp formation: 1) ALA-EE; 2) SDA-EE; 3) EPA-EE; 4) DHA-EE; 5) GLA-EE ([…] adid, 18:3 n-6); and 6) CLA-EE (conjugated linoleic acid; c9t11-18:2 (77%)+c9c11-18:2 (18%)+other isomers (5%)).
These fatty acid ethyl esters are added to the US17 diet to provide 10 g/day human equivalent dose (3% wt.). The NSAID, sulindac (320 ppm), serves as the positive control. In order to maintain a 17% fat (37 en %) content in the US17 diet, oleic acid (18:1 n-9) is removed from the US17 diet in an amount equal to the amount of the fatty acid ethyl ester that is added. Mice are received at approximately five weeks of age and are fed the test diets upon receipt. After seven weeks on the respective test diet, the mice are sacrificed and the intestinal polyps are counted and measured.

[3] = test system: mouse liver; set-up: species or system mice; details: in vivo
From the text: as §1, with “n-3)” for “n-3),”, “non-radioactive, dose response, metabolic end-point study.” for “time course study using ^14C-labeled fatty acids.”
Mice are fed a US 17 diet containing α-linolenic acid ethyl ester (ALA-EE), stearidonic acid ethyl ester (SDA-EE), eicosapentaenoic acid ethyl ester (EPA-EE), or docosahexaenoic acid ethyl ester (DHA-EE) in an amount equivalent to a human western diet containing 1, 3 or 10 g/day of the fatty acid (g/day human equivalent dose). In order to maintain a 17% fat (37% energy) content in the US17 diet, oleic acid (18:1 n-9), as an oleic acid cassette, is removed from the US17 diet in an amount equal to the amount of fatty acid ester that is added. Oleic acid is selected as the replacement fatty acid because literature reports indicate that oleic acid is neutral with respect to inflammation and cancer.
After one month on the respective US17-based diets, the mice are sacrificed and the fatty acid composition of each of their livers is analyzed by gas chromatography. The sum of the long chain n-3 PUFAs (i.e., EPA+DPA n-3+DHA) increases dose dependently in liver tissue in the following rank order: DHA-EE>EPA-EE>SDA-EE>ALA-EE. […] Each of the dietary n-3 PUFAs decreases the level of arachidonic acid in liver tissue dose dependently. This is significant because arachidonic acid metabolites (e.g., prostaglandins, leukotrienes, and HETEs (hydroxyeicosatetraenoic acid)) are correlated with cardiovascular disease, inflammation, and tumorigenesis. The group “basal” refers to mice that are fed the standard rodent chow diet just prior to switching to diets that are US17 based.

[4] = test system: rat liver; assay: Metabolism in rats, end point analysis using cold fatty acid ethyl esters; format: in vivo; details: dietary ethyl esters
Protocol: Oleic acid is selected as the replacement fatty acid because literature reports indicate that oleic acid is neutral with respect to inflammation and cancer. After one month on the respective US17-based diets, the mice are sacrificed and the fatty acid composition of each of their livers is analyzed by gas chromatography. […] DHA-EE>EPA-EE>SDA-EE>ALA-EE. […] This is significant because arachidonic acid metabolites (e.g., prostaglandins, leukotrienes, and HETEs (hydroxyeicosatetraenoic acid)) are correlated with cardiovascular disease, inflammation, and tumorigenesis. The group “basal” refers to mice that are fed the standard rodent chow diet just prior to switching to diets that are US17 based. […] The method used is as described in Example 6 except that rats are used in place of mice.

[5] = test system: HepG2 cells; assay: Metabolism of 14C fatty acids to long chain n-3 PUFAs, EPA and DHA in HepG2 cells; format: in vitro ADME; details: for metabolized to DHA / metabolized to EPA: 20 μM 14C fatty acid
Protocol: To a culture medium containing HepG2 cells is added 20 μM ^14C-ALA, ^14C-SDA or ^14C-EPA complexed to fatty acid free BSA. The amount of ^14C-ALA, ^14C-SDA or ^14C-EPA taken up by the HepG2 cells is measured at 6 hours, 24 hours and 48 hours after addition of the fatty acid. A scintillation counter is used to measure the total amount of radioactivity in the HepG2 cells and the amount remaining in the medium.
The metabolism of stearidonic acid to long chain n-3 PUFAs (eicosatetraenoic acid (20:4n-3), eicosapentaenoic acid (20:5n-3), docosapentaenoic acid (22:5n-3), and docosahexaenoic acid (22:6n-3)) in HepG2 cells is compared to that of α-linolenic acid. HepG2 cells are allowed to take up ^14C-ALA or ^14C-SDA as described in Example 2. The total amount of ^14C-EPA, ^14C-DPA and ^14C-DHA present in the HepG2 cells is measured at 6 hours, 24 hours and 48 hours after addition of the fatty acid by argentation thin layer chromatography (TLC). The amount of each fatty acid present as a band on the TLC plate is quantified by electronic autoradiography using an Instant Imager available from Packard (Meriden, Conn.).
HepG2 cells are allowed to take up ^14C-ALA, ^14C-SDA or ^14C-EPA as described in Example 2. The amount of ^14C-EPA and ^14C-DHA present in the HepG2 cells is measured at 6 hours, 24 hours and 48 hours after addition of the fatty acids by argentation thin layer chromatography (TLC) as described in Example 3. The amount of ^14C-EPA and ^14C-DHA present as bands on the TLC plate are quantified by electronic autoradiography using an Instant Imager as described in Example 3.

[6] = test system: small intestine tissue of Min/+ mouse; assay: Arachidonic acid level in small intestine tissue of Min/+ mice; format: in vivo; details: phospholipid fraction, ethyl ester 3% wt. in US17 diet
Protocol: The efficacy of select n-3 and n-6 polyunsaturated fatty acids in reducing the level of arachidonic acid in small intestine tissue is evaluated using the Min/+ mouse model.
The following fatty acid ethyl esters are tested for their effect on intestinal fatty acid composition: 1) ALA-EE; 2) SDA-EE; 3) EPA-EE; 4) DHA-EE; 5) GLA-EE; and 6) CLA-EE. Fatty acid composition is determined in the small intestine because that is where the vast majority of polyps form.
These fatty acid esters are added to the US17 diet as discussed in Example 8. The arachidonic acid level in the phospholipid fraction of the small intestines of the mice is determined by gas chromatography.

[7] = Min/+ mice, seven weeks, ethyl ester 3% wt. or sulindac 320 ppm
[8] = large and small intestine, Min/+ mice, seven weeks, ethyl ester 3% wt. or sulindac 320 ppm, mean ± SEM
[9] = tumor number × tumor size, Min/+ mice, seven weeks, ethyl ester 3% wt. or sulindac 320 ppm, mean ± SEM
[10] = Min/+ mice, seven weeks, ethyl ester 3% wt. or sulindac 320 ppm, mean ± SEM

Molecule: CC/C=C\C/C=C\C/C=C\CCCCCCCC(=O)OCC [ALA-EE, α-linolenic acid ethyl ester]
sum of the long chain n-3 PUFAs (EPA+DPA n-3+DHA) in liver tissue, rank order of dose dependent increase [3]: DHA-EE>EPA-EE>SDA-EE>ALA-EE

Molecule: CCCCC/C=C\C/C=C\C/C=C\CCCCC(=O)O [GLA, γ-linolenic acid, reference compound]
Total small intestine tumors/group [2, 7]: 42 | effect on polyp number ([2]; Min/+ mice): appears to increase polyp number | mice with large intestine tumors / mice in group (in parentheses) [2]: 6/9

Molecule: CC/C=C\C/C=C\C/C=C\C/C=C\C/C=C\CCCC(=O)O [Compound A-4, all cis (5,8,11,14,17-eicosapentaenoic acid]
effectiveness in inhibiting polyp formation and development in the large intestine ([2]; Min/+ mice): marginally efficacious | Total small intestine tumors/group [2, 7]: 17 | Total Avg. tumors/mouse [2, 8]: 18.5 ± 2.2^c | mice with large intestine tumors / mice in group (in parentheses) [2]: 6/10 | Avg. small intestine tumor load [2, 9]: 18.34 ± 2.04^cd mm

Molecule: conjugated linoleic acid [CLA, reference compound]
Total small intestine tumors/group [2, 7]: 40 | effect on polyp number ([2]; Min/+ mice): appears to increase polyp number | mice with large intestine tumors / mice in group (in parentheses) [2]: 5/9

Molecule: CC/C=C\C/C=C\C/C=C\C/C=C\CCCCC(=O)O [Compound A-2, all cis 6,9,12,15-octadecatetraenoic acid]
order of metabolism of the PUFAs to long chain n-3 PUFAs (14C-EPA, 14C-DPA n-3, 14C-DHA) [1]: DHA=EPA>SDA>ALA | Total small intestine tumors/group [2, 7]: 18 | Total Avg. tumors/mouse [2, 8]: 18.7 ± 1.9^c | mice with large intestine tumors / mice in group (in parentheses) [2]: 2/10 | decrease in the level of arachidonic acid, comparison [4]: greater decrease in the level of arachidonic acid than does either ALA or EPA | metabolism to long chain n-3 polyunsaturated fatty acids, comparison [4]: better than ALA | metabolism to long chain n-3 PUFAs, comparison [5]: faster than that of ALA | metabolized to DHA [5]: 6% | metabolized to EPA [5]: 55% | decreasing the level of arachidonic acid in the small intestine, comparison [6]: more effective than ALA, EPA and DHA

Molecule: CC/C=C\C/C=C\C/C=C\CCCCCCCC(=O)O [Compound A-1, all cis 9,12,15-octadecatrienoic acid]
effectiveness in inhibiting polyp formation and development in the large intestine ([2]; Min/+ mice): marginally efficacious | Total large intestine tumors/group ([2]; Min/+ mice, seven weeks on US17 diet with fatty acid ethyl ester 3% wt. (10 g/day human equivalent dose) or sulindac 320 ppm): 8 | Total small intestine tumors/group [2, 7]: 364 | Avg. large intestine tumors/mouse [2, 10]: 0.8 ± 0.3^bcd | Avg. small intestine tumor size [2, 10]: 1.23 ± 0.04^ab mm | Avg. small intestine tumors/mouse [2, 10]: 36.4 ± 6.3^ab | Avg. large intestine tumor size ([2]; Min/+ mice, seven weeks, ethyl ester 3% wt. or sulindac 320 ppm, mean ± SEM, only animals bearing colonic tumors): 2.75 ± 0.46^ab | Total Avg. overall tumor size [2, 8]: 1.21 ± 0.03^bc mm | Total Avg. tumors/mouse [2, 8]: 37.2 ± 6.6^ab | mice with large intestine tumors / mice in group (in parentheses) [2]: 5/10 | Total Avg. overall tumor load ([2]; tumor number × tumor size, large and small intestine, Min/+ mice, seven weeks, ethyl ester 3% wt. or sulindac 320 ppm, mean ± SEM): 45.97 ± 8.88^ab mm | Avg. large intestine tumor load [2, 9]: 2.15 ± 0.82^bcd mm | Avg. small intestine tumor load [2, 9]: 45.67 ± 8.66^ab mm | metabolized to DHA [5]: 3% | metabolized to EPA [5]: 24%

Molecule: CC1=C(CC(=O)O)c2cc(F)ccc2/C1=C\c1ccc([S+](C)[O-])cc1 (centres unmarked) [Sulindac, sulindac, reference compound]
Avg. large intestine tumors/mouse [2, 10]: 0.2 ± 0.2^ad | mice with large intestine tumors / mice in group (in parentheses) [2]: 2/9

Further lines, with some results ahead:

order of metabolism of the PUFAs to long chain n-3 PUFAs (14C-EPA, 14C-DPA n-3, 14C-DHA) [1]: DHA=EPA>SDA>ALA
Molecule: CC/C=C\C/C=C\C/C=C\C/C=C\C/C=C\C/C=C\CCC(=O)O [Compound A-6, all cis 4,7,10,13,16,19-docosahexanoic acid]
mice with large intestine tumors / mice in group (in parentheses) [2]: 9/10

sum of the long chain n-3 PUFAs (EPA+DPA n-3+DHA) in liver tissue, rank order of dose dependent increase [3]: DHA-EE>EPA-EE>SDA-EE>ALA-EE
Molecule: CC/C=C\C/C=C\C/C=C\C/C=C\C/C=C\CCCC(=O)OCC [EPA-EE, eicosapentaenoic acid ethyl ester]

sum of the long chain n-3 PUFAs (EPA+DPA n-3+DHA) in liver tissue, rank order of dose dependent increase [3]: DHA-EE>EPA-EE>SDA-EE>ALA-EE
Molecule: CC/C=C\C/C=C\C/C=C\C/C=C\CCCCC(=O)OCC [SDA-EE, stearidonic acid ethyl ester]

sum of the long chain n-3 PUFAs (EPA+DPA n-3+DHA) in liver tissue, rank order of dose dependent increase [3]: DHA-EE>EPA-EE>SDA-EE>ALA-EE
Molecule: CC/C=C\C/C=C\C/C=C\C/C=C\C/C=C\C/C=C\CCC(=O)OCC [DHA-EE, docosahexaenoic acid ethyl ester]
